Experimental data reported in patent publication US7264932B2, “Nuclease inhibitor cocktail” (Applera Corporation, priority 1999, dated 2007).

Experiments:
[1] = target: nuclease (Homo sapiens, UniProt P03950); assay: Ki of Lead 1 and Lead 2 analogs (Tables 1 and 2); assay type: biochemical; conditions: Table 1, Lead 1 Analog List
[2] = target: T1, bovine RNase A (Bos taurus, UniProt P61823); assay: Intactness of total RNA (RNA LabChip), bovine RNase A; assay type: biochemical; conditions: 100 uM BpB, 8.3 pg/ul bovine RNase A
T1 sequence (P61823 27-150): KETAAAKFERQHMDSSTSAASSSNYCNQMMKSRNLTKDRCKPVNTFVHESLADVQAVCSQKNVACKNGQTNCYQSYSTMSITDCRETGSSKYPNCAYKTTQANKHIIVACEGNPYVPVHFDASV
Procedure: (§1) A total of 100 pg/ul e. […].
(§2) Mouse pancreatic tissue (5 mg) was disrupted in 50 ul of 24 mM Hepes, pH 7.2, 50 mM NaCl, 1 mM MgCl2. The diluted lysate (1:20,000) was pre-incubated with 50 uM Benzopurpurin B (BpB) for 30 sec and then added to 100 ng/ul mouse liver total RNA (Ambion) and incubated at 23 C for an additional 4 min. Samples were quenched in a guanidinium lysis buffer, and the RNA purified via MEGAclear™ MAG-96 and eluted with 20 ul nuclease-free water. […] These experiments were conducted in the same fashion except that 100 uM BpB was employed. The sample (1 ul) was analyzed by 2100 BioAnalyzer software (Agilent) after separation on an RNA LabChip.
(§3) Pancreatic tissue (5 mg) was dounced in 50 ul of 24 mM Hepes, pH 7.2, 50 mM NaCl, 1 mM MgCl2. The lysate was diluted (1:20,000) and then pre-incubated with 200 uM of 467929. […] All samples were pre-incubated for 30 sec before being added to 100 ng/ul mouse liver total RNA (Ambion) and incubated at 23C for an additional 4 min. The RNA was then immediately purified via MEGAclear™ MAG-96 and eluted with 20 ul nuclease-free water. The recovered RNA (1 ul) was analyzed by 2100 BioAnalyzer software after separation on an RNA LabChip.

[3] = tested on: diluted pancreas lysate; assay: Intactness of total RNA (RNA LabChip), diluted pancreas lysate; assay type: biochemical, mouse; conditions: pancreas lysate 1:20,000, 23 C 4 min
Procedure: as §1
Pancreatic lysate (0.1 mg/ml) was diluted 1:20,000 in 24 mM Hepes, pH 7.2, 50 mM NaCl, 1 mM MgCl2 and pre-incubated with either 1% SDS or 6.25 mM OVA for 30 s prior to the addition of 2 ug mouse liver total RNA. Reactions were incubated at 25 C for an additional 4 min, quenched, and analyzed on an RNA LabChip.
as §2
Mouse pancreatic tissue (5 mg) was dounced in 50 ul of 24 mM Hepes, pH 7.2, 50 mM NaCl, 1 mM MgCl2. A diluted lysate (1:20,000) was pre-incubated with 100 uM BpB or the analog Benzopurpurin 4B (Bp4B) for 30 sec and then added to 100 ng/ul mouse liver total RNA (Ambion) and incubated at 23 C for an additional 4 min. Samples were quenched in a guanidinium lysis buffer, and the RNA purified via MEGAclear™ MAG-96 and eluted with 20 ul nuclease-free water. The sample (1 ul) was analyzed by 2100 BioAnalyzer software (Agilent) after separation on an RNA LabChip.
as §3

[4] = target: eosinophil-derived neurotoxin (EDN) (Homo sapiens, UniProt P10153); assay: Intactness of total RNA (RNA LabChip), EDN; assay type: biochemical; conditions: 100 uM BpB, 1 ng/ul EDN
[5] = target: T2, human pancreatic RNase (HPR) (Homo sapiens, UniProt P07998); assay: Intactness of total RNA (RNA LabChip), HPR; assay type: biochemical; conditions: 100 uM BpB, 1 ng/ul HPR
T2 sequence (P07998 29-156): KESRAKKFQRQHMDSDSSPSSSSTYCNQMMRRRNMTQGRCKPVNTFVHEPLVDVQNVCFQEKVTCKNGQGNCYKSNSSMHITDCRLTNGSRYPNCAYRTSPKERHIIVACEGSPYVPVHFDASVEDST

[6] = target: E. coli RNase I (Escherichia coli, UniProt P21338); assay: Intactness of total RNA (RNA LabChip), E. coli RNase I; assay type: biochemical; conditions: 100 uM BpB, 7 ng/ul E. coli RNase I
[7] = target: DNase I (Bos taurus, UniProt P00639); assay: Lambda DNA digestion assay with DNase I; assay type: biochemical; conditions: 0.02 U DNase I, 1 ug lambda DNA, 10 min at 37C
Excerpt: One application for small molecule RNase inhibitors is as an RNA control agent during enzymatic manipulation of solutions containing RNA. These reactions include in vitro transcription, in vitro translation, DNase digestion, and reverse transcription, among others. […] […] […] All reactions were quenched with EDTA and the cleavage products resolved on a 1% agarose gel.
As a result, compounds such as #467929, 140553, and 180582 may have utility in curbing the activity of residual RNases that may carry over from RNA isolation methods during DNase treatments of the RNA.

[8] = tested on: one-step RT-PCR with MMLV-RT and SuperTaq, target hGAPDH; assay: One-step qRT-PCR tolerance, hGAPDH; assay type: biochemical
Procedure: To evaluate the compatibility of Benzopurpurin B and 4B in RT-PCR applications, 100 nM, 1 uM, 10 uM, and 25 uM were tested in Ambion's MessageSensor RT-PCR Kit using the supplier's instructions and using primers/probe designed to amplify a 226 nt amplicon from the human GAPDH mRNA. Reaction conditions: 20-ul one-step RT-PCR with MMLV-RT (0.4 U/ul final) and SuperTaq (0.04 U/ul final). Cycling conditions: Stage 1. 42 C for 15 minutes, Stage 2. 95 C for 5 min, Stage 3. 95 C-15 sec and 60 C-60 sec, where Stage 3 is repeated 40 times. […] The compound was tolerated at 10 uM or lower with no significant loss of sensitivity (Table 16).

[9] = target: T1, bovine RNase A; assay: Ki determination by Dixon analysis (RNaseAlert); assay type: biochemical; conditions: 74 pM RNase A, 40 nM RNaseAlert substrate, pH 7.0
Excerpt: To measure the inhibition constant of compound #467929 against bovine RNase A, Dixon analysis was used to determine the relationship between RNase activity and inhibitor concentration. The […] fluorescence assay (Ambion) was used to quantify RNase activity.

[10] = target: MMLV RT RNase H (Moloney murine leukemia virus, UniProt P03355); assay: RT-based RNase H cleavage of RNA:DNA hybrid; assay type: biochemical
Procedure: As described above, Chembridge compound #467929 offered protection from several RNA-specific endonucleolytic activities. […] A 20-mer DNA oligonucleotide was asymmetrically annealed to a 1500 base synthetic RNA to create an RNA:DNA duplex substrate for RNase H. Reactions were initiated with 10 U of MMLV RT in 1× RT buffer (50 mM TrisCl pH 8.3, 75 mM KC, 3 mM MgCl2, 5 mM DTT) containing 500 ng/ul RNA:DNA hybrid. All reactions contained 5% DMSO either with or without the small molecule RNase inhibitor. Samples were incubated for 5 min at 37 C, and quenched with EDTA. Products were resolved on an RNA LabChip. Cleavage products were observed as two equally represented RNA species of 1000 and 500 bases. Product length and yield were determined using the 2100 BioAnalyzer software (Agilent). Table 18 details the level of inhibition of MMLV RT RNase H that is observed as a function of the concentration of compounds 467929 and 227726.

Chain of E. coli RNase I (P21338 24-268): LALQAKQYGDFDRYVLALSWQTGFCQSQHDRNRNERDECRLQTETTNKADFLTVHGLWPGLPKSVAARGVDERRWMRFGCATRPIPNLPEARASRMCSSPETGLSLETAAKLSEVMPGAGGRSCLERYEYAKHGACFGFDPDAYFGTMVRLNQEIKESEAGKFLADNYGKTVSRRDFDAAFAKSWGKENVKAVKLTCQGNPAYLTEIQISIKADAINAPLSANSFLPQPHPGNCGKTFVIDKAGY
Chain of nuclease (P03950 25-147): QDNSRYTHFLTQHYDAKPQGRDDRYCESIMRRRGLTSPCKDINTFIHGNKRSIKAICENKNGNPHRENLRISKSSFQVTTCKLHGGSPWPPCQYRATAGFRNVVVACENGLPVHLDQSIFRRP
Chain of DNase I (P00639 23-282): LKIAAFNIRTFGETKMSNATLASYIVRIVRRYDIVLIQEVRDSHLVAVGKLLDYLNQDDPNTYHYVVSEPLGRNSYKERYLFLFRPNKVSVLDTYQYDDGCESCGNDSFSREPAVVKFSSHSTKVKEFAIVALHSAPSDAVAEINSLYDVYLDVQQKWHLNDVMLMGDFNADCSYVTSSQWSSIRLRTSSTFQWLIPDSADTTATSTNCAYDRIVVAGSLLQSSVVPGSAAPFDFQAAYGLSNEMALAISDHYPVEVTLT
Chain of eosinophil-derived neurotoxin (EDN) (P10153 28-161): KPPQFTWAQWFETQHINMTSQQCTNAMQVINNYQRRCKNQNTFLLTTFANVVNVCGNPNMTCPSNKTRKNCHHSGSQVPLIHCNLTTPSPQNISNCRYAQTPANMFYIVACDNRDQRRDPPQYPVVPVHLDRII

Row | Compound | Ki [1] [µM] | inhibition of RNase (RNA intactness) [2] | protection of total RNA from degradation ([3]; 50 uM BpB) | protection of total RNA from degradation ([3]; 100 uM inhibitor) | inhibition of RNase (RNA intactness) [4] | inhibition of RNase (RNA intactness) [5] | inhibition of RNase (RNA intactness) [6] | concentration tolerated with little or no effect on enzymatic DNA cleavage [7] | Ct at 50 ng Input RNA ([8]; RT w RIP, inhibitor 1 uM) | Ct at 50 ng Input RNA ([8]; RT w RIP, inhibitor 10 uM) | Ct at 50 ng Input RNA ([8]; RT w RIP, inhibitor 25 uM) | Ct at 50 ng Input RNA ([8]; RT w RIP, inhibitor 100 nm) | Ct at 50 ng Input RNA ([8]; RT without RIP, inhibitor 1 uM) | Ct at 50 ng Input RNA ([8]; RT without RIP, inhibitor 10 uM) | Ct at 50 ng Input RNA ([8]; RT without RIP, inhibitor 25 uM) | Ct at 50 ng Input RNA ([8]; RT without RIP, inhibitor 100 nm) | Ki [9] [µM] | % Cleavage ([10]; inhibitor 8 uM, 36 without inhibitor) [%] | % Cleavage ([10]; inhibitor 40 uM) [%]
1 | Cc1cc(-c2ccc(/N=N/c3c(N)ccc4cc(S(=O)(=O)O)ccc34)c(C)c2)ccc1/N=N/c1c(N)ccc2cc(S(=O)(=O)O)ccc12 [Benzopurpurin B, 3,3′-di-methylbiphenyl-4,4′-bis(2-amino-naphthylazo-6-sulfo-nate)] | 5 | effective inhibitor | significant protection | significant protection | effective inhibitor | effective inhibitor | effective inhibitor | up to 10 uM | 17.66 | 19.27 | undet | 17.27 | 17.35 | 17.96 | undet | 17.39 |  |  | 
2 | O=C(Nc1ccc(Cc2ccc(NC(=O)c3cccc([N+](=O)[O-])c3)c(C(=O)O)c2)cc1C(=O)O)c1cccc([N+](=O)[O-])c1 [compound 467929, 3,3′-dicarboxy-4,4′-bis(3-ni-trophenylamido)di-phenylmethane] |  |  |  |  |  |  |  |  |  |  |  |  |  |  |  |  | ~12 | 42 | 8
